Active and inactive are the calls of the source. The rule behind the calls is not given here.
Assays:
[1] = biological target: T1, Methionine aminopeptidase (Escherichia coli K-12) (UniProt P0AE18); experiment: Inhibition of Co2+ loaded MetAP expressed in Escherichia coli at 10 uM
T1 sequence (whole entry): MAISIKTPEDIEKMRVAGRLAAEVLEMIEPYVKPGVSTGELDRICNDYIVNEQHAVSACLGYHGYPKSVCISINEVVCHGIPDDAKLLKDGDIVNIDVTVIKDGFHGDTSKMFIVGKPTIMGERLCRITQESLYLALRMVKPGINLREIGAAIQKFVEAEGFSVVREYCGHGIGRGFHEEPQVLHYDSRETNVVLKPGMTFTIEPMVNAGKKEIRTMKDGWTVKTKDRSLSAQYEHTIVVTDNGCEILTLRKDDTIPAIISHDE

[2] = biological target: T2, Methionine aminopeptidase (Escherichia coli K-12, UniProt P0AE18); experiment: Inhibition of Co2+ loaded MetAP expressed in Escherichia coli
T2 sequence (P0AE18 whole entry): T1 sequence (whole entry)

[3] = biological target: T1, Methionine aminopeptidase (Escherichia coli K-12); experiment: Inhibition of Mn2+ loaded MetAP expressed in Escherichia coli at upto 10 uM

SMILES | inhibition [1] | IC50 [2] | inhibition [3]
c1coc(-c2nc3ccccc3[nH]2)c1 [FUBERIDAZOLE] | 10.4% | > 10000 nM | inactive
c1ccc(-c2nc3ccccc3[nH]2)nc1 | – | 574 nM | inactive
N#Cc1ccc2[nH]c(-c3ccccn3)nc2c1 | – | 431 nM | inactive
c1c[nH]c2nc(-c3cscn3)nc-2c1 | – | 78 nM | inactive
CC(C)(C)c1ccc2nc(-c3ccccn3)[nH]c2c1 | – | 2600 nM | –
c1ccc(-c2nc3c[nH]cnc-3n2)nc1 | – | 376 nM | inactive
N/C(S)=N/c1nc2ccccc2[nH]1 | – | – | inactive
c1csc(-c2nc3ccccc3[nH]2)c1 | 5.36% | > 10000 nM | inactive
COC(=O)Nc1nc2ccccc2[nH]1 [CARBENDAZIM] | 17.6% | > 10000 nM | inactive
c1ccc(-c2nc3ncc[nH]c-3n2)nc1 | – | 240 nM | inactive
Cc1ccc2nc(-c3ccccn3)[nH]c2c1 | – | – | inactive
CCCSc1ccc2nc(NC(=O)OC)[nH]c2c1 [ALBENDAZOLE] | – | > 10000 nM | –
Cn1c(-c2cscn2)nc2ccccc21 | – | – | inactive
O=[N+]([O-])c1ccc2[nH]c(-c3cscn3)nc2c1 | – | – | inactive
COC(=O)Nc1nc2ccc(C(=O)c3ccccc3)cc2[nH]1 [MEBENDAZOLE] | – | > 10000 nM | –
COC(=O)Nc1nc2cc(Sc3ccccc3)ccc2[nH]1 | 6.07% | – | inactive
Cc1ccc2[nH]c(-c3ccccn3)nc2c1 | – | 2090 nM | –
O=C(c1ccccc1)c1ccc2nc(-c3ccccn3)[nH]c2c1 | – | 403 nM | –
O=[N+]([O-])c1ccc2[nH]c(-c3ccccn3)nc2c1 | – | 162 nM | inactive
NC(=S)Nc1nc2ccccc2[nH]1 | – | 8960 nM | –
CCCSc1ccc2[nH]c(NC(=O)OC)nc2c1 | 15.4% | – | inactive
Nc1ccc2nc(-c3ccccn3)[nH]c2c1 | – | 967 nM | –
Oc1ccccc1-c1nc2ccccc2[nH]1 | 30.4% | > 10000 nM | inactive
O=C(c1ccccc1)c1ccc2[nH]c(-c3cscn3)nc2c1 | – | – | inactive
Cc1ccc2[nH]c(-c3cscn3)nc2c1 | – | – | inactive
c1cc2nc(-c3cscn3)[nH]c2cn1 | – | 1720 nM | –
Fc1ccc2[nH]c(-c3ccccn3)nc2c1 | – | 1510 nM | –

SMILES | inhibition [1] | IC50 [2] | inhibition [3]
Nc1ccc2[nH]c(-c3ccccn3)nc2c1 | – | – | inactive
Clc1ccc2[nH]c(-c3cscn3)nc2c1 | – | 5150 nM | inactive
O=C(c1ccccc1)c1ccc2[nH]c(-c3ccccn3)nc2c1 | – | – | inactive
c1ccc2[nH]c(-c3cscn3)nc2c1 [THIABENDAZOLE] | – | 472 nM | inactive
Cc1cc2nc(-c3cscn3)[nH]c2cc1C | 47.8% | > 10000 nM | inactive
c1cncc(-c2nc3ccccc3[nH]2)c1 | 4.21% | > 10000 nM | inactive
CC(C)(C)c1ccc2[nH]c(-c3cscn3)nc2c1 | – | – | inactive
Oc1cccnc1-c1nc2ccccc2[nH]1 | – | 777 nM | inactive
c1cc2[nH]c(-c3cscn3)nc2cn1 | – | – | inactive
Fc1ccc2nc(-c3ccccn3)[nH]c2c1 | – | – | inactive
Oc1cccc(-c2nc3ccccc3[nH]2)n1 | – | – | inactive
O=c1cccc(-c2nc3ccccc3[nH]2)[nH]1 | – | 1340 nM | –
COC(=O)Nc1nc2cc(C(=O)c3ccccc3)ccc2[nH]1 | 29% | – | inactive
c1ccc2[nH]c(Nc3nccs3)nc2c1 | – | 540 nM | inactive
c1ccc(Cn2c(-c3cscn3)nc3ccccc32)cc1 | – | – | inactive
CC(C)(C)c1ccc2nc(-c3cscn3)[nH]c2c1 | – | 3910 nM | –
Cc1cc2nc(-c3ccccn3)[nH]c2cc1C | – | 2430 nM | inactive
CC(C)(C)c1ccc2[nH]c(-c3ccccn3)nc2c1 | – | – | inactive
Nc1ccc2[nH]c(-c3cscn3)nc2c1 | – | 3390 nM | inactive
c1ccc2[nH]c(-c3cnccn3)nc2c1 | – | 4590 nM | inactive
COC(=O)Nc1nc2ccc(Sc3ccccc3)cc2[nH]1 [FENBENDAZOLE] | – | > 10000 nM | –
c1ccc(-c2nc3cc[nH]cc-3n2)nc1 | – | 550 nM | inactive
Fc1ccc2[nH]c(-c3cscn3)nc2c1 | – | – | inactive
c1ccc(Cn2c(-c3ccccn3)nc3ccccc32)cc1 | – | 992 nM | inactive
c1ccc(-c2nc3ccc[nH]c-3n2)nc1 | – | 105 nM | inactive
Clc1ccc2nc(-c3ccccn3)[nH]c2c1 | – | 1690 nM | inactive

Reference: ChEMBL document CHEMBL1148582, “Metal-mediated inhibition of Escherichia coli methionine aminopeptidase: structure-activity relationships and development of a novel scoring function for metal-ligand interactions” (J Med Chem, 2006)
